Test results reported in patent US4740504A, “Antihyperlipidemic amine boranes” (United States Borax & Chemical Corp., priority 1987, dated 1988).
Read-outs that look alike come from different tables or passages of the source.

Experiments:
male CF1 mice = test: Hypolipidemic activity in CF1 mice, intraperitoneal dosing (serum cholesterol and triglyceride); type: in vivo; conditions: Mus musculus, ip, male CF1 mice; for response vs control in vivo at 20 mg/kg / response vs control in vivo at 5 mg/kg: Table I; for response vs control in vivo at 20 mg/kg: 20 mg./kg./day i.p.; for response vs control in vivo at 8 mg/kg: Table II, 8 mg./kg./day i.p.; for response vs control in vivo at 5 mg/kg: 5 mg./kg./day i.p.
Procedure: For determining hypolipidemic activity, the compounds were suspended in an aqueous 1% carboxymethylcellulose solution and tested at 5 or 20 mg./kg./day administered intraperitoneally to male CF1 mice (~25 g.). On days 9 and 16 blood was collected by tail vein bleeding and the serum separated by centrifugation for three minutes. Serum cholesterol levels were determined by a modified Liebermann-Burchard reaction. Serum triglyceride levels were also determined at 16 days using a Fisher-Hycel Triglyceride Test Kit.
The test was repeated at a dosage of 8 mg./kg./day.
N-n-Octadecyl-N,N-dimethylamine borane was suspended in an aqueous 1% carboxymethylcellulose solution, homogenized, and administered to CF1 male mice (~25 g.) intraperitoneally for 16 days or Sprague Dawley male rats (~350 g.) orally by an intubation needle for 14 days. On days 9 and 14 or 16, blood was obtained by tail vein bleeding and the serum separated by centrifugation for 3 minutes. The serum cholesterol levels were determined by a modification of the Liebermann-Burchard reaction. Serum was also collected on day 14 or 16 and the triglyceride content was determined by a Fisher-Hycel Triglyceride Test Kit.

[1] = dose of 5-20 mg/kg/day; Hall et al., J. Pharm. Sci. 70, 339-341 (1981); cited from earlier work
[2] = target: T1, ATP dependent citrate lyase (Mus musculus, UniProt Q91V92); conditions: in vivo; Hall et al. 1984; cited from earlier work
T1 construct: from tissue
T1 sequence (Q91V92 1-1091): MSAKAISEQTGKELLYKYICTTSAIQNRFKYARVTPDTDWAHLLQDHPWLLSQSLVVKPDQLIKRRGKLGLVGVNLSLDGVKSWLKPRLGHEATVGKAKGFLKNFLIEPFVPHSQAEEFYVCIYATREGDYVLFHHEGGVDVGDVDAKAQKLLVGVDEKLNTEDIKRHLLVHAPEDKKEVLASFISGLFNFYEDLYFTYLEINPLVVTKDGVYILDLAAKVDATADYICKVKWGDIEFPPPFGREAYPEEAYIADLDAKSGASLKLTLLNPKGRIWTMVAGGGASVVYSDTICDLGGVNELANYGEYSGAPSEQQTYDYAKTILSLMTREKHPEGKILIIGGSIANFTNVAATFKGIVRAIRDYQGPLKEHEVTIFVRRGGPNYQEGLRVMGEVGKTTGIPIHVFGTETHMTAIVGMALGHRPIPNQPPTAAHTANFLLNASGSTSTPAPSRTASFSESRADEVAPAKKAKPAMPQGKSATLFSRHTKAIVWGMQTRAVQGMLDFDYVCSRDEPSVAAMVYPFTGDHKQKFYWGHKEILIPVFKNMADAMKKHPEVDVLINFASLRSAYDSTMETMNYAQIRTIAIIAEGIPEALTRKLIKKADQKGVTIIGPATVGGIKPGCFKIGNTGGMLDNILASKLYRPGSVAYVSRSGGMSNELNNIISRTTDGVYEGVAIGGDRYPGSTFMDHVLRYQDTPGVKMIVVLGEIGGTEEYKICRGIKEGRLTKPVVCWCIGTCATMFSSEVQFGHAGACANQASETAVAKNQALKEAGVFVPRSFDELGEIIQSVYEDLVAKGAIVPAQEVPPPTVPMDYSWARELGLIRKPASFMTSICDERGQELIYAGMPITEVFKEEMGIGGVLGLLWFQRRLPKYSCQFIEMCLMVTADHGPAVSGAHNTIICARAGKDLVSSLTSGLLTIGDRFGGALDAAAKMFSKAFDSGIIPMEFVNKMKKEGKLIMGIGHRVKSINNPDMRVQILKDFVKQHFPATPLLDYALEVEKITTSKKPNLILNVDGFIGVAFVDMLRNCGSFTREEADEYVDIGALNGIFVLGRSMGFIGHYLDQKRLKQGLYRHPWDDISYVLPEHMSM

[3] = tested on: phosphatidate phosphohydrolase; conditions: in vivo; Hall et al. 1984; cited from earlier work
acetyl CoA synthetase = target: T2, acetyl CoA synthetase (Mus musculus, UniProt Q9QXG4); conditions: in vivo; Hall et al. 1984; cited from earlier work
T2 construct: from tissue
T2 sequence (Q9QXG4 whole entry): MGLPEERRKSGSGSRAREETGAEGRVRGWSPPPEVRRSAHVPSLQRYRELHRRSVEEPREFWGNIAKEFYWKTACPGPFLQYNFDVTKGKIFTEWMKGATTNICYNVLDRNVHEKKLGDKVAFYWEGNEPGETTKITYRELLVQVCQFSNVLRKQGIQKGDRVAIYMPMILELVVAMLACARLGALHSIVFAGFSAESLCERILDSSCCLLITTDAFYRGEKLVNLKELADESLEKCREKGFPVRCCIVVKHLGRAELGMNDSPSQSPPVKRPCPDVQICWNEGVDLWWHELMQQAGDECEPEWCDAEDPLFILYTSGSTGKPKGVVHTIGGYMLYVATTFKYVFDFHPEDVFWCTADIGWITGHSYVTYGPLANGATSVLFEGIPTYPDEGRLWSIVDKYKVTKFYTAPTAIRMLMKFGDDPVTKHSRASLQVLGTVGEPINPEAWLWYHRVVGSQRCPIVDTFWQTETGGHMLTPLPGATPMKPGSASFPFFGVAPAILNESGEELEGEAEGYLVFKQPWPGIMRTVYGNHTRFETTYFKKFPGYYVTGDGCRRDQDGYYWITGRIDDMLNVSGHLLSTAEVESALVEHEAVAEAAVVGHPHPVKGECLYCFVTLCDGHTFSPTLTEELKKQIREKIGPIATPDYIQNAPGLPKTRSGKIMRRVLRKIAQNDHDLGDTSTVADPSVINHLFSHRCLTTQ

mice = conditions: cited from earlier work
[4] = 216 h, day 9, read-out: Serum Cholesterol Day 9
[5] = 384 h, day 16, read-out: Serum Cholesterol Day 16
[6] = 384 h, day 16, read-out: Serum Triglyceride Day 16

Molecule | response vs control in vivo at 20 mg/kg (male CF1 mice; [4]) [%] | response vs control in vivo at 8 mg/kg (male CF1 mice; [4]) [%] | response vs control in vivo at 20 mg/kg (male CF1 mice; [5]) [%] | response vs control in vivo at 20 mg/kg (male CF1 mice; [6]) [%] | response vs control in vivo at 8 mg/kg (male CF1 mice; [5]) [%] | response vs control in vivo at 8 mg/kg (male CF1 mice; [6]) [%] | response vs control in vivo at 5 mg/kg (male CF1 mice; [4]) [%] | response vs control in vivo at 5 mg/kg (male CF1 mice; [5]) [%] | response vs control in vivo at 5 mg/kg (male CF1 mice; [6]) [%] | hypolipidemic activity (printed: hyperlipidemic) [1] | effect on ATP dependent citrate lyase [2] | effect on phosphatidate phosphohydrolase [3] | effect on acetyl CoA synthetase (acetyl CoA synthetase) | hypolipidemic activity (mice; 2.5 mg/kg in mice, Hall et al., J. Pharm. Sci. 73, 973-977 (1984)) | cholesterol excretion from the body (mice; Hall et al. 1984)
[BH3-][N+](C)(C)CCCCCCCC [II, N-octyl-N,N-dimethylamine borane] | 66 | 81 | 69 | 75 | 73 | 74 |  |  |  |  |  |  |  |  | 
[BH3-][N+](C)(C)CCCCCCCCCCC [IV, N--undecyl-N,N--dimethylamine borane] |  | 82 |  |  | 68 | 75 | 68 | 63 | 82 |  |  |  |  |  | 
[BH3-][N+](C)(C)CCCCCCCCCCCC [IX, N--dodecyl-N,N--dimethylamine borane] | 103 | 75 | 97 | 90 | 74 | 94 |  |  |  |  |  |  |  |  | 
[BH3-][N+](C)(C)CCCCCCCCCCCCC [V, N--tridecyl-N,N--dimethylamine borane] | 88 | 86 | 65 | 57 | 84 | 76 |  |  |  |  |  |  |  |  | 
[BH3-][N+](C)(C)CCCCCCCCCCCCCCC [VI, N--pentadecyl-N,N--dimethylamine borane] | 86 | 81 | 64 | 70 | 66 | 77 |  |  |  |  |  |  |  |  | 
[BH3-][N+](C)(C)CCCCCCCCCCCCCC [VII, N--tetradecyl-N,N--dimethylamine borane] | 79 | 80 | 60 | 102 | 67 | 80 |  |  |  |  |  |  |  |  | 
[BH3-][N+](C)(C)CCCCCCCCCCCCCCCC [VIII, N--hexadecyl-N,N--dimethylamine borane] | 74 | 79 | 62 | 72 | 59 | 41 |  |  |  |  |  |  |  |  | 
[BH3-][N+](C)(C)CCCCCC [X, N-- -n-hexyl-N,N--dimethylamine borane] | 66 | 73 | 48 | 71 | 69 | 80 |  |  |  |  |  |  |  |  | 
[BH3-][N+](C)(C)CCCC [XI, N-- -n-butyl-N,N--dimethylamine borane] | 72 | 88 | 62 | 68 | 64 | 72 |  |  |  |  |  |  |  |  | 
[BH3-][N+](C)(C)CCCCCCCCCC [XII, N--decyl-N,N--dimethylamine borane] | 51 | 77 | 46 | 76 | 77 | 79 |  |  |  |  |  |  |  |  | 
[BH3-][N+](C)(C)Cc1ccccc1 [XIII, N--benzyl-N,N--dimethylamine borane] | 95 | 73 | 71 | 60 | 65 | 53 |  |  |  |  |  |  |  |  | 
C[N+](C)(C)[BH2-]C(=O)O [trimethylamine carboxyborane] |  |  |  |  |  |  |  |  |  | potent hyperlipidemic activity |  |  |  |  | 
tetrakis-μ-(trimethylamine-borane carboxyato)-bis(trimethylamine-carboxyborane)-dicopper (II) |  |  |  |  |  |  |  |  |  |  | lower | lower | lower | potent hypolipidemic agent | accelerate cholesterol excretion
